From patent US7462600B2, “Macrolides” (Pfizer Inc, priority 2004, dated 2008)
Values after ≈ are worked out from the molar mass of the structure shown. Read-outs that look alike come from different tables or passages of the source.

Tests used:
Type in all cases: cell-based
[1] = test system: Streptococcus pyogenes 1079; assay: MIC, microtiter broth dilution (NCCLS M100-S14), S. pyogenes 1079 (ermB)
Outline: (§1)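 Microtiter broth dilution; interpretation per NCCLS M100-S14; endpoint = MIC. Stock: 40 mg/ml in DMSO.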

[2] = test system: Streptococcus pneumoniae 1016; assay: MIC, microtiter broth dilution (NCCLS M100-S14), S. pneumoniae 1016 (susceptible)
Outline: as §1

[3] = test system: Streptococcus pneumoniae 1095; details: microtiter broth dilution
Outline: as §1

[4] = test system: Streptococcus pneumoniae 1175; details: microtiter broth dilution
Outline: as §1

[5] = test system: Haemophilus influenzae 1218; assay: MIC, microtiter broth dilution (NCCLS M100-S14), H. influenzae 1218 (susceptible)
Outline: as §1

[6] = S. pneumoniae 1016 (susceptible)
[7] = H. influenzae 1218 (susceptible)

Row | Structure (SMILES) | MIC S. pyogenes 1079 ([1]; Streptococcus pyogenes 1079) [µg/mL] | MIC S. pneumo. 1016 ([2]; Streptococcus pneumoniae 1016) [µg/mL] | MIC S. pneumo. 1095 ([3]; Streptococcus pneumoniae 1095) [µg/mL] | MIC S. pneumo. 1175 ([4]; Streptococcus pneumoniae 1175) [µg/mL] | MIC H. influenzae 1218 ([5]; Haemophilus influenzae 1218) [µg/mL] | MIC S. pyogenes 1079 ([1]; S. pyogenes 1079 (ermB)) [µg/mL] | MIC S. pneumo. 1016 [2, 6] [µg/mL] | MIC S. pneumo. 1095 ([3]; S. pneumoniae 1095 (ermB)) [µg/mL] | MIC S. pneumo. 1175 ([4]; S. pneumoniae 1175 (mefA)) [µg/mL] | MIC H. influenzae 1218 [5, 7] [µg/mL]
1 | CCC1OC(=O)C(C)C(=O)C(C)C(OC2OC(C)CC(N(C)C)C2O)C(C)(OC)CC(C)C(=O)C(C)C2N(C3CN(C(=O)NCc4ccc5ncccc5c4)C3)C(=O)OC12C (stereo not drawn) [Example 2.10, N-((quinolin-6-yl)inethyl) aminocarbonyl] | >64.00 | <0.06 | 8 (≈ 9.39 µM) | 0.25 (≈ 0.293 µM) | 2 (≈ 2.35 µM) |  |  |  |  | 
2 | CCC1OC(=O)C(C)C(=O)C(C)C(OC2OC(C)CC(N(C)C)C2O)C(C)(OC)CC(C)C(=O)C(C)C2N(CC3CCCN3Cc3cccc4cccnc34)C(=O)OC12C (stereo not drawn) [10.05] |  |  |  |  |  | >64.00 | <0.06 | <0.06 | 0.12 (≈ 0.143 µM) | 4 (≈ 4.78 µM)
3 | CCC1OC(=O)C(C)(F)C(=O)C(C)C(OC2OC(C)CC(N(C)C)C2O)C(C)(OC)CC(C)C(=O)C(C)C2N(C3CN(Cc4ccnc5ncccc45)C3)C(=O)OC12C (stereo not drawn) [Example 1.33, 3-descladinosyl-11,12-dideoxy-2-fluoro-6-O-methyl-3-oxo-12,11-(oxycarbonyl-(1-((1,8-naphthyridin-4-yl)-methyl)-azetidin-3-yl)-imino)-erythromycin A] | 0.25 (≈ 0.302 µM) | <0.06 | <0.06 | <0.06 | 0.25 (≈ 0.302 µM) |  |  |  |  | 
4 | CCC1OC(=O)C(C)C(=O)C(C)C(OC2OC(C)CC(N(C)C)C2O)C(C)(OC)CC(C)C(=O)C(C)C2N(CC3CCN(Cc4cccnc4OC)C3)C(=O)OC12C (stereo not drawn) [11.09] |  |  |  |  |  | >64.00 | <0.06 | 4 (≈ 4.9 µM) | 16 (≈ 19.6 µM) | 4 (≈ 4.9 µM)
5 | CC[C@H]1OC(=O)[C@H](C)[C@@H](OC(=O)N2CCCC2C)[C@H](C)[C@@H](O[C@@H]2O[C@H](C)C[C@H](N(C)C)[C@H]2O)[C@](C)(OC)C[C@@H](C)C(=O)[C@H](C)[C@H]2N(CC3CN(Cc4cccc5cccnc45)C3)C(=O)O[C@]12C (stereo partly drawn) [Example 5.04] | 4 (≈ 4.27 µM) | <0.06 | <0.06 | <0.06 | 1 (≈ 1.07 µM) |  |  |  |  | 
6 | CCC1OC(=O)C(C)C(=O)C(C)C(OC2OC(C)CC(N(C)C)C2O)C(C)(OC)CC(C)C(=O)C(C)C2N(CC3CCN(C(=O)c4cnc5ccccc5c4)C3)C(=O)OC12C (stereo not drawn) [11.17] |  |  |  |  |  | >64.00 | <0.06 | 8 (≈ 9.4 µM) | 2 (≈ 2.35 µM) | 4 (≈ 4.7 µM)
7 | CCC1OC(=O)C(C)C(=O)C(C)C(OC2OC(C)CC(N(C)C)C2O)C(C)(OC)CC(C)C(=O)C(C)C2N(CC3CN(Cc4n[nH]c5ncccc45)C3)C(=O)OC12C.O=CO (stereo not drawn) [4.43] | >64.00 | <0.06 | 0.12 | 1 | 0.25 |  |  |  |  | 
8 | CCC1OC(=O)C(C)C(=O)C(C)C(OC2OC(C)CC(N(C)C)C2O)C(C)(OC)CC(C)C(=O)C(C)C2N(CC3CCCN3C(=O)c3cn4ccccc4n3)C(=O)OC12C (stereo not drawn) [10.54] |  |  |  |  |  | 64 (≈ 76.2 µM) | <0.06 | <0.06 | 0.25 (≈ 0.298 µM) | 1 (≈ 1.19 µM)
9 | CCC1OC(=O)C(C)C(=O)C(C)C(OC2OC(C)CC(N(C)C)C2O)C(C)(OC)CC(C)C(=O)C(C)C2N(C3CN(Cc4ccncc4F)C3)C(=O)OC12C (stereo not drawn) [Example 1.78, 3-descladinosyl-11,12-dideoxy-6-O-methyl-3-oxo-12,11-(oxycarbonyl-(1-(3-fluoropyridine-4-methyl)-azetidin-3-yl)-imino)-erythromycin A] | 4 (≈ 5.15 µM) | <0.063 | <0.063 | <0.063 | 1 (≈ 1.29 µM) |  |  |  |  | 
10 | CCC1OC(=O)C(C)C(=O)C(C)C(OC2OC(C)CC(N(C)C)C2O)C(C)(OC)CC(C)C(=O)C(C)C2N(CC3CCCN3Cc3ccc(OC)nc3)C(=O)OC12C (stereo not drawn) [12.03] |  |  |  |  |  | >64.00 | <0.06 | >64.00 | 0.5 (≈ 0.612 µM) | 4 (≈ 4.9 µM)
11 | CCC1OC(=O)C(C)C(=O)C(C)C(OC2OC(C)CC(N(C)C)C2O)C(C)(OC)CC(C)C(=O)C(C)C2N(CC3CN(Cc4c(C)ccc5nc[nH]c45)C3)C(=O)OC12C.O=CO (stereo not drawn) [Example 4.44, 3-descladinosyl-11,12-dideoxy-6-O-methyl-3-oxo-12,11-(oxycarbonyl-(1-((6-methyl-1H-benzo[d]imidazol-7-yl)-methyl)-(azetidin-3-yl)-methyl)-imino)-erythromycin A] | 8 | <0.06 | 0.5 | <0.06 | 0.25 |  |  |  |  | 
12 | CCC1OC(=O)C(C)C(=O)C(C)C(OC2OC(C)CC(N(C)C)C2O)C(C)(OC)CC(C)C(=O)C(C)C2N(C3CN(Cc4ccc5c(c4)OCO5)C3)C(=O)OC12C (stereo not drawn) [Example 1.104, 3-descladinosyl-11,12-dideoxy-6-O-methyl-3-oxo-12,11-(oxycarbonyl-(1-(benzo[d][1,3]dioxole-5-methyl)-azetidin-3-yl)-imino)erythromycin A] | >64 | <0.063 | <0.063 | 0.125 (≈ 0.156 µM) | 0.25 (≈ 0.312 µM) |  |  |  |  | 
13 | CCC1OC(=O)C(C)C(=O)C(C)C(OC2OC(C)CC(N(C)C)C2O)C(C)(OC)CC(C)C(=O)C(C)C2N(CC3CCN(Cc4ccc(-c5ccccn5)cc4)CC3)C(=O)OC12C (stereo not drawn) [15.07] |  |  |  |  |  | >64.00 | <0.06 | >64.00 | 1 (≈ 1.14 µM) | 32 (≈ 36.5 µM)
14 | CCC1OC(=O)C(C)C(=O)C(C)C(OC2OC(C)CC(N(C)C)C2O)C(C)(OC)CC(C)C(=O)C(C)C2N(CC3CN(Cc4c[nH]c5ncccc45)C3)C(=O)OC12C (stereo not drawn) [Example 4.18, 3-descladinosyl-11,12-dideoxy-6-O-methyl-3-oxo-12,11-(oxycarbonyl-(1-((1H-pyrrolo[2,3-b]pyridin-3-yl)-methyl)-(azetidin-3-yl)-methyl)-imino)-erythromycin A] | 8 (≈ 9.85 µM) | <0.06 | 0.12 (≈ 0.148 µM) | 0.5 (≈ 0.616 µM) | 0.25 (≈ 0.308 µM) |  |  |  |  | 
15 | CC[C@H]1OC(=O)[C@H](C)C(=O)[C@H](C)[C@@H](O[C@@H]2O[C@H](C)C[C@H](N(C)C)[C@H]2O)[C@](C)(OC)C[C@@H](C)C(=O)[C@H](C)[C@H]2N(C3CN(C(C)c4ccnc5ccccc45)C3)C(=O)O[C@]12C (stereo partly drawn) [Example 1.63, 3-descladinosyl-11,12-dideoxy-6-O-methyl-3-oxo-12,11-(oxycarbonyl-(1-(1-(quinolin-4-yl)-ethyl)-azetidin-3-yl)-imino)-erythromycin A] | 2 (≈ 2.43 µM) | <0.06 | <0.06 | 0.12 (≈ 0.146 µM) | 1 (≈ 1.22 µM) |  |  |  |  | 
